ChEMBL document CHEMBL2021924, “Identification of novel telomeric G-quadruplex-targeting chemical scaffolds through screening of three NCI libraries” (Bioorg Med Chem Lett, 2012)

Key:
Format in all cases: nucleic-acid assay
Nucleic Acid [1] = assay: Stabilization of human G-quadruplex F21T assessed as change in melting temperature at 1 uM by FRET assay
Nucleic Acid [2] = assay: Stabilization of DNA duplex hairpin structure assessed as change in melting temperature at 1 uM by FRET assay
Nucleic Acid [3] = assay: Stabilization of human G-quadruplex F21T assessed as change in melting temperature at 5 uM by FRET assay

Structure (SMILES)	ΔTm (Nucleic Acid [1]) [°C]	ΔTm (Nucleic Acid [2]) [°C]	ΔTm (Nucleic Acid [3]) [°C]
CN(C)c1ccc(C=c2c3ccccc3n3c2cc(-c2ccc(Cl)cc2)[n+]3C)cc1	1.3	0.3	22.1
COc1cc(Cc2nccc3cc(OC)c(OC)cc23)c(C(C)=O)cc1OC	8	0.4	36.7
O=C(Nc1ccc(C2=NCCN2)cc1)c1ccc(Cl)c(C(=O)Nc2ccc(C3=NCCN3)cc2)c1	24.2	1.4	37.3
O=C(Nc1ccc(C2=NCCCN2)cc1)Nc1ccc(C2=NCCCN2)cc1	20.1	2.9	21.5
Cc1cc(N)c2cc(NC(=O)/C=C/c3ccccc3Cl)ccc2n1	7.3	0.4	19.7
Cc1cc2nc3ccc(N(C)C)cc3[s+]c2cc1N	20.3	1.8	35.1
Cc1cc(NCCCCCCCNc2cc(C)nc3cc(N)ccc23)c2ccc(N)cc2n1	11.8	0.6	38.7
Cc1ccc2c(ccc(/C=C/c3ccc(O)c4ncccc34)[n+]2C)c1	12.4	0	22.9
COc1ccc2cc3[n+](cc2c1OC)CCc1cc2c(cc1-3)OCO2	9.7	0.3	23.8
Cc1ccc(NC(=O)Nc2nc3ccccc3s2)cc1NC(=O)Nc1nc2ccccc2s1	22.7	0.4	26.6
c1ccc2c(NCCCCCCCCNc3c4ccccc4nc4ccccc34)c3ccccc3nc2c1	3	0.7	38.5
COc1ccc2c(NCCCCCCNc3c4ccccc4nc4cc(OC)ccc34)c3ccccc3nc2c1	30.5	3.9	39
COc1ccc2c(=O)oc3c(OC)cc(CCN(C)C)c4c(=O)oc1c2c34	13.2	1.7	24
CC(=O)N(C)c1ccc(Nc2cc(C)nc3ccc4nc[nH]c4c23)cc1	15.8	0.4	31.1
Cc1cc(N)c2ccccc2[n+]1CCCCCCCCCC[n+]1c(C)cc(N)c2ccccc21	19.5	1.3	40.7
CCN(CC)CCNc1ccc2nc(C)n3c4ccc(OC)cc4c(=O)c1c23	4.2	2.6	15.2
COc1cc2c3c(n(C)c(=O)c2cc1OC)-c1cc2c(cc1C3=O)OCO2	8.1	0.3	18.8
COc1cc2cc3c4cc(OC)c(OC)cc4cc[n+]3c(C)c2cc1OC.O=C([O-])CS(=O)(=O)O	29.9	3.2	42.6
CCN(CC)Cc1cc2[nH]c3c4ccc(Cl)cc4ncc3c2cc1OC	15	0.7	25.9
CCN1C=C/C(=C\C=C\c2cc[n+](CC)c3ccccc23)c2ccccc21	11.2	0.6	36.4
CN(C)c1ccc(Nc2c3ccc(NC(=O)CCN4CCCC4)cc3nc3cc(NC(=O)CCN4CCCC4)ccc23)cc1	29.5	8.8	–
N=C(N)c1ccc(/C=C/c2ccc(C(=N)N)cc2O)cc1	17.3	3.2	26.3
O=C(Nc1ccc(C2=NCCN2)cc1)c1ccc(C(=O)Nc2ccc(C3=NCCN3)cc2)c([N+](=O)[O-])c1	13.3	3.4	33.2
O=C(Nc1ccc(C2=NCCN2)cc1)c1ccc(C(=O)Nc2ccc(C3=NCCN3)cc2)c(Cl)c1	8.4	1.4	20.4
